Results on one compound are retold here after patent US12351580B2, “NLRP3 modulators” (Innate Tumor Immunity, Inc., priority 2017, dated 2025).

One assay has as its target T1, TLR7 (Homo sapiens, UniProt Q9NYK1).
T1 construct: host or cells: HEK-Blue cells (human HEK) co-expressing TLR7 and an NF-kB/AP1-inducible SEAP reporter
T1 sequence (Q9NYK1 27-1049): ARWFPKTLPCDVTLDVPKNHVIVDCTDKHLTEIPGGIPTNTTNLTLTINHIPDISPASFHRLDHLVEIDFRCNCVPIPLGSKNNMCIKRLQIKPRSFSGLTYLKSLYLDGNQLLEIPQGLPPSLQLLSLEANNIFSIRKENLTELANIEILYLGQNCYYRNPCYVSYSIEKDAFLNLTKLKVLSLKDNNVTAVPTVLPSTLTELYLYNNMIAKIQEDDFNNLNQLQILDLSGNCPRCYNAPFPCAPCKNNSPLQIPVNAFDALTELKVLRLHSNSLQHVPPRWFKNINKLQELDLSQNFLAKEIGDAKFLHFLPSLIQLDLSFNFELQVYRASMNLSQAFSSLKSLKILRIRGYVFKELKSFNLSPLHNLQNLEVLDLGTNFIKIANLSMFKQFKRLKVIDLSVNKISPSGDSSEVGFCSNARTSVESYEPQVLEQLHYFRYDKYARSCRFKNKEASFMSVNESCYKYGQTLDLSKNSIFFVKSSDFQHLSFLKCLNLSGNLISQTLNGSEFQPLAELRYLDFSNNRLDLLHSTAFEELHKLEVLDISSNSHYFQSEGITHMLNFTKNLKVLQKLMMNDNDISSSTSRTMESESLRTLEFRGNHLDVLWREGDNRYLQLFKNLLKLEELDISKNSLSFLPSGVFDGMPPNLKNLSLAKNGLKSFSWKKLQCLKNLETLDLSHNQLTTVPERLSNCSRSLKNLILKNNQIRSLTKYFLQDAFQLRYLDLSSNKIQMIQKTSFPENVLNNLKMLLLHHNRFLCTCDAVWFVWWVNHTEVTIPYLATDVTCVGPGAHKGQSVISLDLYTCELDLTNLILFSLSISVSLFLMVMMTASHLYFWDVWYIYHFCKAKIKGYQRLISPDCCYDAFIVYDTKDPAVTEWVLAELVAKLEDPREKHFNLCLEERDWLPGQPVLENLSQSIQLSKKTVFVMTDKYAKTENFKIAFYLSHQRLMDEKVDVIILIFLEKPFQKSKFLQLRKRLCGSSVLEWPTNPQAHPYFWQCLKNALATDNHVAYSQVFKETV
Put plainly: In vitro human TLR7 binding reporter assay (HEK-Blue, NF-kB/AP1-inducible SEAP). The format is cell-based. As to conditions: activity range symbols. As for the experimental part:
(§1) In Vitro Human TLR7 and TLR8 Binding Reporter Assays
(§2) Logarithmically-growing human HEK-Blue cells co-expressing a TLR7 or TLR8 gene and a NF-kB/AP1-inducible SEAP (secreted embryonic alkaline phosphatase; Invivogen, San Diego, CA) reporter gene are added to individual wells of a 384-well plate (15,000 cells per 20 μL per well) and maintained for 24 h at 37° C., 5% CO2. Test compounds or DMSO are distributed to separate wells the next day using acoustic liquid handling technology (100 nL per well) and cells are subsequently incubated for 18 h at 37° C., 5% CO2. Cellular SEAP production is measured using an Envision plate reader instrument thirty minutes after adding freshly-made Quanti-Blue reagent (prepared by following manufacturer instructions; Invivogen, San Diego, CA) to the HEK-Blue TLR Nf-kB-SEAP cell reactions. All EC50 values (half-maximal effective concentration) are determined using proprietary data analysis software.
On the technique in general: Reporter assays use an easily measured gene product as a stand-in for the process of interest.

A further assay addresses T2, TLR8 (Homo sapiens, UniProt Q9NR97).
T2 construct: host or cells: HEK-Blue cells (human HEK) co-expressing TLR8 and an NF-kB/AP1-inducible SEAP reporter
T2 sequence (Q9NR97 27-1041): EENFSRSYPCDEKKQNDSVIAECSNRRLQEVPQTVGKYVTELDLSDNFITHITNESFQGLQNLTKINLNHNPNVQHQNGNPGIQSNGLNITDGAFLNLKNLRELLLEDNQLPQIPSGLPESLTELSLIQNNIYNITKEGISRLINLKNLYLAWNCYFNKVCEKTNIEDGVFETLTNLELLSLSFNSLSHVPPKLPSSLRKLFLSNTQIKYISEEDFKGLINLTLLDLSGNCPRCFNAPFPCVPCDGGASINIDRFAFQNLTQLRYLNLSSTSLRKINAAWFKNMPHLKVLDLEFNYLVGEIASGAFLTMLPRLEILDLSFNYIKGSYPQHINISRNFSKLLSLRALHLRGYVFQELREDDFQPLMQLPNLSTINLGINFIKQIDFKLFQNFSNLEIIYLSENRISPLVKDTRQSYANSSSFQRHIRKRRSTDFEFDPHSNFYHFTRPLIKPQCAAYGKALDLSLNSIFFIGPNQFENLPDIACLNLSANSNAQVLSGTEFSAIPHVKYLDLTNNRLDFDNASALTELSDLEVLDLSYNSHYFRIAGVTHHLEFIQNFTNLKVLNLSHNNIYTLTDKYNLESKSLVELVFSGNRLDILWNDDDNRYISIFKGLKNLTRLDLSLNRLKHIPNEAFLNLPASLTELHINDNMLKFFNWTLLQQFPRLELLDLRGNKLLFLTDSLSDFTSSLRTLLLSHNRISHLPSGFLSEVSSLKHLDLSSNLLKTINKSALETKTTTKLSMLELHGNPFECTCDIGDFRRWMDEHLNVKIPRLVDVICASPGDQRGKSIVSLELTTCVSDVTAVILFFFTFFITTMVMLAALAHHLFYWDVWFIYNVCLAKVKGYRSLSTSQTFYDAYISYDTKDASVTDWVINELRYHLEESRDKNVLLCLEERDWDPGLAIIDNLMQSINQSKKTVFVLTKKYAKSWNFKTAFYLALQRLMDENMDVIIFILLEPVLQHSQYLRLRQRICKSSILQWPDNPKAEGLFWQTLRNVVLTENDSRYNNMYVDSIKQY
Put plainly: In vitro human TLR8 binding reporter assay (HEK-Blue, NF-kB/AP1-inducible SEAP). Type of assay: cell-based. The following applies: activity range symbols. The procedure: as §1, §2

Take `CCN(Cc1nc2c(N)nc3ccccc3c2n1CCC(=O)NC)C(C)=O` [Compound 199]: the EC50 at TLR7 and on TLR8 was over 100 µM each time.

By EC50 is commonly meant the concentration that produces a half-maximal response. Higher therefore signals a need for much substance.
